Values of other authors, collected in patent US20050013939A1, “Boron-based wood preservatives and treatment of wood with boron-based preservatives” (priority 2001, published 2005).

Assays:
[1] = test system: Insect; conditions: boric acid equivalents typically required in wood
[2] = test system: fungal decay; conditions: boric acid equivalents typically required in wood

SMILES: OB(O)O [boric acid]
- % wt/wt BAE required, Insect protection [1]: 0.25 % wt/wt
- % wt/wt BAE required, Fungicidal protection [2]: 0.75 % wt/wt
